Results: patent US3988466A, “Prevention of gastric lesions” (priority 1973, dated 1976)

How the values were obtained:
[1] = tested on: aspirin-induced gastric lesions in pylorus-ligated rats; assay: Effect of L-glutamine on aspirin-induced gastric lesions in pylorus-ligated rats (Experiment 1); assay type: in vivo, male Donryu strain rats; settings: for Ulcer index / Inhibition: aspirin 100 mg/kg oral; for Ulcer index: 7 hours; for Inhibition: vs control ulcer index
Description: In this Experiment, 6 groups of male Donryu strain rats are used. The animals are fasted for 24 hours but water is allowed ad libitum. Under ether anesthesia, the pylorus is ligated according to the standard method of Shay et al. Five groups are treated with graded doses of L-glutamine suspended in 1% carboxymethylcellulose solution by oral administration immediately after the pylorus ligation. A sixth group (control) is treated with 5 ml/kg of 1% carboxymethylcellulose solution alone. […] After a 7-hour interval during which the animals are not allowed feed or water, the animals are killed by an overdose of ether. […] The stomach is removed and slightly inflated by injection of 1% formalin solution through the esophagel junction. […] The stomach is opened along the greater curvature and the length of lesions (dark blue areas against pale blue background) in the glandular portion is measured under a dissecting microscope (10x) provided with a square grid. […] The ulcer index expressed by mm indicates the mean value of the sum of the length of the lesions per animal of each group. The level of significance is calculated according to Student t-test.

[2] = Effect of L-glutamine on absorption of aspirin in rats (plasma salicylate level; Experiment A); assay type: in vivo, male Wistar strain rats; settings: L-glutamine administered together with aspirin
Description: In this Experiment, 2 groups of male Wistar strain rats weighing about 280-320 g, each consisting of 12 animals are fixed in supine position. Under ether anesthesia, the carotid artery is cannulated for blood sampling. Upon recovery from the anesthesia, one group is treated with 1000 mg/kg of L-glutamine suspended in 1% carboxymethylcellulose solution and the other group (control) with 5 ml/kg of 1% carboxymethylcellulose solution alone, by oral administration. […] The same treatments are applied also to 2 groups of pylorus-ligated rats, each consisting of 5 animals.
The blood sample is centrifuged at 8,000 r.p.m. for 5 minutes and 20 μl of plasma is collected for the measurement of salicylate concentration. Salicylate concentration of plasma is determined according to the method of Lever & Powell [Lever, M. and Powell, J. C.: Biochem. Med., 7, 203 (1973)].

SMILES: NC(=O)CC[C@H](N)C(=O)O [L-glutamine]
- Ulcer index ([1]; L-glutamine 62.5 mg/kg oral): 57.6±5.6 mm
- Inhibition ([1]; L-glutamine 62.5 mg/kg oral): -5.0%
- gastric lesions preventive effect ([1]; L-glutamine 62.5 mg/kg, aspirin 100 mg/kg): no such effect is observed
- Ulcer index ([1]; L-glutamine 125 mg/kg oral): 27.9±4.7 mm
- Inhibition ([1]; L-glutamine 125 mg/kg oral): 49.0%
- Ulcer index ([1]; L-glutamine 250 mg/kg oral): 15.0±3.4 mm
- Inhibition ([1]; L-glutamine 250 mg/kg oral): 72.6%
- Ulcer index ([1]; L-glutamine 500 mg/kg oral): 18.0±3.1 mm
- Inhibition ([1]; L-glutamine 500 mg/kg oral): 67.1%
- Ulcer index ([1]; L-glutamine 1,000 mg/kg oral): 3.5±1.5 mm
- Inhibition ([1]; L-glutamine 1,000 mg/kg oral): 93.6%
- animals with stomachs quite clear and no mucosal defect ([1]; L-glutamine 1000 mg/kg, aspirin 100 mg/kg): three out of 12
- effect on absorption of aspirin (in words) [2]: does not inhibit the absorption of aspirin
